The results in this text go back to patent US12527779B2, “Prostaglandin E2 (PGE2) EP4 receptor antagonists” (Domain Therapeutics, priority 2019, dated 2026).

The experiment concerns the target T1, human EP4 (hEP4) receptor (Homo sapiens, UniProt P35408).
T1 construct: expressed in transfected cells; host or cells: HEK-293 T cells, transient co-transfection with polyethylenimine
Kind of experiment: In vitro human EP4 functional antagonist activity using BRET biosensors (cAMP EPAC biosensor, TCS2510 stimulation). Conditions: antagonist activity vs EC60 TCS2510, hEP4 in HEK-293 T cells. Type of experiment: cell-based. The essentials:
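HEK-293T cells transiently co-transfected with hEP4 and EPAC cAMP BRET biosensor (luciferase/GFP), assayed 48 h later in HEPES-buffered saline after 1 h at 22 °C. After 5 min with compound, cells stimulated with EC60 TCS2510 and BRET read for 10 min; IC50 from 10-point, 4.5-log variable-slope fits, duplicate, two experiments.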
For orientation: BRET reads energy transfer from a luciferase to a nearby fluorophore.

pIC50: −log10 of the molar value. Counter-ions that a name gives are not always drawn. Some results are limits rather than exact numbers.

T1 sequence (P35408 whole entry): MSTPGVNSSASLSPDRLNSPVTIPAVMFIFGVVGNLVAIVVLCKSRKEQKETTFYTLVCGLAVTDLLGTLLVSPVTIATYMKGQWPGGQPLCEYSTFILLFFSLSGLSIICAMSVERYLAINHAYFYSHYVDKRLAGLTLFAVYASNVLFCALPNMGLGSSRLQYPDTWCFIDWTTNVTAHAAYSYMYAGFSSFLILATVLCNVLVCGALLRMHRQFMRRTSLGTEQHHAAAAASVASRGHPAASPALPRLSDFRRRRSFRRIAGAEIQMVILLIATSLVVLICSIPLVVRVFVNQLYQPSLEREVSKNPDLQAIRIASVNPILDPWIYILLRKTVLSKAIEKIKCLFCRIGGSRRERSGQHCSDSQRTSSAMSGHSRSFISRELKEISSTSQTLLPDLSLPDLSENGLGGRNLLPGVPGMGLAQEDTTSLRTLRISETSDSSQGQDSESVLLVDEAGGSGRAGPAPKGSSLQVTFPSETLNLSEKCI

Broadly, the pIC50 is the negative decadic logarithm of the IC50, by convention in mol/L. Low values mean a high IC50, high ones a low IC50. Turning to `CN(CCOc1ccccc1)C1(C(=O)NC2(c3ccc(C(=O)O)c(F)c3)CC2)CCOCC1` [Example 49, 2-Fluoro-4-[1-[[4-[methyl(2-phenoxyethyl)amino]tetrahydropyran-4-carbonyl]amino]cyclopropyl]benzoic acid, hydrochloride], the negative logarithm of the IC50 (pIC50) is above 6.00. For the molecule `CN(CCOc1ccccc1)C1(C(=O)NC2(c3ccc(C(=O)O)nc3)CC2)CCOCC1` [Example 53, 5-[1-[[4-[Methyl(2-phenoxyethyl)amino]tetrahydropyran-4-carbonyl]amino]cyclopropyl]pyridine-2-carboxylic acid, hydrochloride], the negative-log IC50 (pIC50) is above 6.00. Next, `C[C@H](NC(=O)C1(N2CC[C@@H](Oc3cccc(Cl)c3)C2)CCOCC1)c1ccc(C(=O)O)cc1` [Example 140, 4-[(1S)-1-[[4-[(3R)-3-(3-Chlorophenoxy)pyrrolidin-1-yl]tetrahydropyran-4-carbonyl]amino]ethyl]benzoic acid, hydrochloride]: above 7.00; `C[C@H](NC(=O)C1(c2ccc(OCC3CCCCC3)cc2)CCCC1)c1ccc(C(=O)O)cc1` [Example 108, 4-[(1S)-1-[[1-[4-(Cyclohexylmethoxy)phenyl]cyclopentanecarbonyl]amino]ethyl]benzoic acid]: above 7.00; `CN(CCOc1ccc(Cl)cc1)C1(C(=O)NC2(c3ccc(C(=O)O)cc3)CC2)CCOCC1` [Example 31, 4-[1-[[4-[2-(4-Chlorophenoxy)ethyl-methyl-amino]tetrahydropyran-4-carbonyl]amino]cyclopropyl]benzoic acid, hydrochloride]: above 6.00. In the case of `CN(CCOc1cccc(F)c1)C1(C(=O)NC2(c3ccc(C(=O)O)cc3)CC2)CCOCC1` [Example 32, 4-[1-[[4-[2-(3-Fluorophenoxy)ethyl-methyl-amino]tetrahydropyran-4-carbonyl]amino]cyclopropyl]benzoic acid, hydrochloride] it was above 7.00; in that of `C[C@H](NC(=O)C1(N2CC[C@@H](Oc3cccc(C(F)(F)F)c3)C2)CCOCC1)c1ccc(-c2nn[nH]n2)cc1` [Example 175, N—((S)-1-(4-(2H-Tetrazol-5-yl)phenyl)ethyl)-4-((R)-3-(3-(trifluoromethyl)phenoxy)pyrrolidin-1-yl)tetrahydro-2H-pyran-4-carboxamide, hydrochloride], above 7.00; in that of `C[C@H](NC(=O)C1(c2ccc(OCCC3CCCCC3)cc2)CCOCC1)c1ccc(C(=O)O)cc1` [Example 95, 4-[(1S)-1-[[4-[4-(2-Cyclohexylethoxy)phenyl]tetrahydropyran-4-carbonyl]amino]ethyl]benzoic acid], above 6.00. As for `C[C@H](NC(=O)C1(N(C)CCOc2cccc(Cl)c2)CCOC1)c1ccc(C(=O)O)cc1` (stereo partly drawn) [Example 75, 4-[(1S)-1-[[3-[2-(3-Chlorophenoxy)ethyl-methyl-amino]tetrahydrofuran-3-carbonyl]amino]ethyl]benzoic acid, hydrochloride], the negative-log IC50 (pIC50) was above 7.00. Next, `C[C@H](NC(=O)C1(N(C)CCOc2cccc(Cl)c2)CCOCC1)c1ccc(C(=O)O)cc1` [Example 9, 4-[(1S)-1-[[4-[2-(3-Chlorophenoxy)ethyl-methyl-amino]tetrahydropyran-4-carbonyl]amino]ethyl]benzoic acid, hydrochloride]: above 7.00; `CN(CCOc1ccc(F)cc1)C1(C(=O)NC2(c3ccc(C(=O)O)cc3)CC2)CCOCC1` [Example 34, 4-[1-[[4-[2-(4-Fluorophenoxy)ethyl-methyl-amino]tetrahydropyran-4-carbonyl]amino]cyclopropyl]benzoic acid, hydrochloride]: above 7.00; `C[C@H](NC(=O)C1(N2CC[C@@H](Oc3cccc(C(F)(F)F)c3)C2)CCOCC1)c1ccc(-c2ccn[nH]2)cc1` [Example 177, N—((S)-1-(4-(1H-Pyrazol-5-yl)phenyl)ethyl)-4-((R)-3-(3-(trifluoromethyl)phenoxy)pyrrolidin-1-yl)tetrahydro-2H-pyran-4-carboxamide, hydrochloride]: above 7.00. In turn, `C[C@H](NC(=O)C(C)(C)N1CC[C@@H](Oc2cccc(C(F)(F)F)c2)C1)c1ccc(S(C)(=O)=O)cc1` [Example 204, 2-Methyl-N—((S)-1-(4-(methylsulfonyl)phenyl)ethyl)-2-((R)-3-(3-(trifluoromethyl)phenoxy)pyrrolidin-1-yl)propanamide, hydrochloride] gave a pIC50 above 6.00. Molecule `C[C@H](NC(=O)C1(c2cccc(OCC3CCCCC3)c2)CCCC1)c1ccc(C(=O)O)cc1` [Example 112, 4-[(1S)-1-[[1-[3-(Cyclohexylmethoxy)phenyl]cyclopentanecarbonyl]amino]ethyl]benzoic acid] showed a pIC50 above 7.00. `C[C@H](NC(=O)C1(NCCOc2ccccc2)CCOCC1)c1ccc(C(=O)O)cc1` [Example 1, 4-[(1S)-1-[[4-(2-Phenoxyethylamino)tetrahydropyran-4-carbonyl]amino]ethyl]benzoic acid, hydrochloride] had a pIC50 above 7.00. In turn, `CN(CCOc1ccccc1)C1(C(=O)NC2(c3ccc(C(=O)O)cc3)CC2)CCOC1` (stereo not drawn) [Example 76, 4-[1-[[3-[Methyl(2-phenoxyethyl)amino]tetrahydrofuran-3-carbonyl]amino]cyclopropyl]benzoic acid, hydrochloride] showed a negative logarithm of the IC50 (pIC50) above 6.00. The molecule `C[C@H](NC(=O)C1(NCC2CCCCC2)CCOCC1)c1ccc(C(=O)O)cc1` [Example 21, 4-[(1S)-1-[[4-(Cyclohexylmethylamino)tetrahydropyran-4-carbonyl]amino]ethyl]benzoic acid, hydrochloride] had a negative logarithm of the IC50 (pIC50) above 6.00.

`C[C@H](NC(=O)C1(N2CC[C@@H](Oc3cccc(C(F)(F)F)c3)C2)CCCCC1)c1ccc(C(=O)O)cc1` [Example 162, 4-[(1S)-1-[[1-[(3R)-3-[3-(Trifluoromethyl)phenoxy]pyrrolidin-1-yl]cyclohexane-1-carbonyl]amino]ethyl]benzoic acid, hydrochloride] showed a pIC50 above 7.00. In the case of `C[C@H](NC(=O)C1(N2CC[C@@H](Oc3cccc(C(F)(F)F)c3)C2)CCC1)c1ccc(C(N)=O)cc1` [Example 171, 4-[(1S)-1-[[1-[(3R)-3-[3-(Trifluoromethyl)phenoxy]pyrrolidin-1-yl]cyclobutane-1-carbonyl]amino]ethyl]benzamide, hydrochloride], the pIC50 is above 7.00. Regarding `Cc1cccc(OCCNC2(C(=O)N[C@@H](C)c3ccc(C(=O)O)cc3)CCCCC2)c1` [Example 58, 4-[(1S)-1-[[1-[2-(3-Methylphenoxy)ethylamino]cyclohexanecarbonyl]amino]ethyl]benzoic acid, hydrochloride], the negative-log IC50 (pIC50) is above 7.00.

`O=C(O)c1ccc(C2(NC(=O)C3(N(CCOc4ccccc4)CC4CC4)CCOCC3)CC2)cc1` [Example 27, 4-[1-[[4-[Cyclopropylmethyl(2-phenoxyethyl)amino]tetrahydropyran-4-carbonyl]amino]cyclopropyl]benzoic acid, hydrochloride] gave a pIC50 above 6.00. In the case of `C[C@H](NC(=O)C1(N2CC[C@@H](Oc3cccc(C(F)(F)F)c3)C2)CCOCC1)c1ccc(C(N)=O)cc1` [Example 168, 4-[(1S)-1-[[4-[(3R)-3-[3-(Trifluoromethyl)phenoxy]pyrrolidin-1-yl]tetrahydropyran-4-carbonyl]amino]ethyl]benzamide, hydrochloride] it was above 7.00. `C[C@H](NC(=O)C1(N(C)CCOc2ccccc2)CCCC1)c1ccc(C(=O)O)cc1` [Example 62, 4-[(1S)-1-[[1-[Methyl(2-phenoxyethyl)amino]cyclopentanecarbonyl]amino]ethyl]benzoic acid, hydrochloride]: the negative-log IC50 (pIC50) is above 7.00. As for `C[C@H](NC(=O)C1(c2ccnc(OCC3CCCCC3)c2)CCOCC1)c1ccc(C(=O)O)cc1` [Example 116, 4-[(1S)-1-[[4-[2-(Cyclohexylmethoxy)-4-pyridyl]tetrahydropyran-4-carbonyl]amino]ethyl]benzoic acid], the pIC50 was above 6.00. For the molecule `C[C@H](NC(=O)C1(NCCOc2cccc(Cl)c2)CCCCC1)c1ccc(C(=O)O)cc1` [Example 56, 4-[(1S)-1-[[1-[2-(3-Chlorophenoxy)ethylamino]cyclohexanecarbonyl]amino]ethyl]benzoic acid, hydrochloride], the negative logarithm of the IC50 (pIC50) was above 7.00. Regarding `O=C(O)c1ccc(C2(NC(=O)C3(N4CC[C@@H](Oc5ccccc5)C4)CCOCC3)CC2)cc1` [Example 153, 4-[1-[[4-((3R)-3-Phenoxypyrrolidin-1-yl)tetrahydropyran-4-carbonyl]amino]cyclopropyl]benzoic acid, hydrochloride], the pIC50 was above 7.00. In turn, `CNC(=O)c1ccc([C@H](C)NC(=O)C2(N3CC[C@@H](Oc4cccc(C(F)(F)F)c4)C3)CCOCC2)cc1` [Example 169, hydrochloride] showed a pIC50 above 7.00. In the case of `C[C@H](NC(=O)C1(NCCOc2cccc(Cl)c2)CCCC1)C12CC(C(=O)O)(C1)C2` [Example 64, 3-[(1S)-1-[[1-[2-(3-Chlorophenoxy)ethylamino]cyclopentanecarbonyl]amino]ethyl]bicyclo[1.1.1]pentane-1-carboxylic acid, hydrochloride] it was above 6.00.

`C[C@H](NC(=O)C1(N2CC[C@@H](OC3CCCCC3)C2)CCOCC1)c1ccc(C(=O)O)cc1` [Example 154, 4-[(1S)-1-[[4-[(3R)-3-(Cyclohexyloxy]pyrrolidin-1-yl]tetrahydropyran-4-carbonyl]amino]ethyl]benzoic acid, hydrochloride] showed a pIC50 above 7.00. On to `CC(C)CCOc1cccc(C2(C(=O)N[C@@H](C)c3ccc(C(=O)O)cc3)CCOCC2)c1` [Example 104, 4-[(1S)-1-[[4-(3-Isopentyloxyphenyl)tetrahydropyran-4-carbonyl]amino]ethyl]benzoic acid], for which the negative-log IC50 (pIC50) was above 6.00.
